According to the supplement of paper PMC10307832:

Legend:
Assay in all cases: relative viability (nuclei count vs DMSO), 5 days (fraction); higher = more cells survive
[1] = system: A549
In short: (§1)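 After 5 days of treatment, lung cancer cells in 1536-well plates were fixed and stained in a single step (final 0.05% Triton X-100, 1% formaldehyde, 1 ug/ml Hoechst) and their nuclei counted on 4× images. Treatment had been applied by pin tool the day after seeding as one drug alone or as a fixed anchor-drug dose with five library-drug doses (not always all listed) in √10 steps. Relative viability is the nuclei count of treated wells divided by that of vehicle wells, and values are medians of duplicate plates.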

[2] = system: Calu-6
In short: as §1

[3] = system: EBC-1
In short: as §1

[4] = system: IA-LM
In short: as §1

[5] = system: NCI-H1299
In short: as §1

[6] = system: NCI-H1623
In short: as §1

[7] = system: NCI-H1703
In short: as §1

[8] = system: UMC-11
In short: as §1

**Q.** How did the relative viability ([1]; first compound 0.04 µM) turn out when `COc1cc(N2CCC(C(N)=O)CC2)ccc1Nc1nc(N)c(Cl)c(Nc2ccccc2S(=O)(=O)C(C)C)n1` [HG-5-88-01] + COc1cc2c(Oc3ccc(NC(=O)C4(C(=O)Nc5ccc(F)cc5)CC4)cc3F)ccnc2cc1OCCCN1CCOCC1 [Foretinib] (partner 0.25 µM) was run?
**A.** 0.984

**Q.** What about the relative viability ([1]; first compound 0.1265 µM) of the same compound?
**A.** 0.861

**Q.** And the relative viability ([1]; first compound 0.4 µM)?
**A.** 0.993

**Q.** And the relative viability ([1]; first compound 1.265 µM)?
**A.** 0.87

**Q.** And the relative viability ([1]; first compound 4 µM)?
**A.** 0.228

**Q.** And the relative viability ([2]; first compound 0.04 µM)?
**A.** 0.865

**Q.** And the relative viability ([2]; first compound 0.1265 µM)?
**A.** 0.879

**Q.** And the relative viability ([2]; first compound 0.4 µM)?
**A.** 0.866

**Q.** What about the relative viability ([2]; first compound 1.265 µM) of the same compound?
**A.** 0.793

**Q.** What about the relative viability ([2]; first compound 4 µM) of the same compound?
**A.** 0.686

**Q.** And the relative viability ([3]; first compound 0.04 µM)?
**A.** 0.0975

**Q.** And the relative viability ([3]; first compound 0.4 µM)?
**A.** 0.12

**Q.** And the relative viability ([3]; first compound 1.265 µM)?
**A.** 0.11

**Q.** And the relative viability ([3]; first compound 4 µM)?
**A.** 0.105

**Q.** And the relative viability ([4]; first compound 0.04 µM)?
**A.** 1.28

**Q.** And the relative viability ([4]; first compound 0.1265 µM)?
**A.** 1.22

**Q.** And the relative viability ([4]; first compound 0.4 µM)?
**A.** 1.05

**Q.** What about the relative viability ([4]; first compound 1.265 µM) of the same compound?
**A.** 0.885

**Q.** And the relative viability ([4]; first compound 4 µM)?
**A.** 1.18

**Q.** What about the relative viability ([5]; first compound 0.04 µM) of the same compound?
**A.** 1.05

**Q.** And the relative viability ([5]; first compound 0.1265 µM)?
**A.** 1.11

**Q.** And the relative viability ([5]; first compound 0.4 µM)?
**A.** 1.1

**Q.** What about the relative viability ([5]; first compound 1.265 µM) of the same compound?
**A.** 1.07

**Q.** What about the relative viability ([5]; first compound 4 µM) of the same compound?
**A.** 1.1

**Q.** And the relative viability ([6]; first compound 0.04 µM)?
**A.** 0.925

**Q.** What about the relative viability ([6]; first compound 0.1265 µM) of the same compound?
**A.** 0.906

**Q.** What about the relative viability ([6]; first compound 0.4 µM) of the same compound?
**A.** 0.845

**Q.** And the relative viability ([6]; first compound 4 µM)?
**A.** 0.773

**Q.** What about the relative viability ([7]; first compound 0.04 µM) of the same compound?
**A.** 0.41

**Q.** What about the relative viability ([7]; first compound 0.1265 µM) of the same compound?
**A.** 0.349

**Q.** What about the relative viability ([7]; first compound 1.265 µM) of the same compound?
**A.** 0.275

**Q.** And the relative viability ([7]; first compound 4 µM)?
**A.** 0.331

**Q.** And the relative viability ([8]; first compound 0.04 µM)?
**A.** 1.09

**Q.** And the relative viability ([8]; first compound 0.1265 µM)?
**A.** 1.07

**Q.** And the relative viability ([8]; first compound 1.265 µM)?
**A.** 0.923

**Q.** What about the relative viability ([8]; first compound 4 µM) of the same compound?
**A.** 0.371

**Q.** What does the source list for `Clc1ccc(Nc2nnc(Cc3ccncc3)c3ccccc23)cc1` [Vatalanib] + COc1cc2c(Oc3ccc(NC(=O)C4(C(=O)Nc5ccc(F)cc5)CC4)cc3F)ccnc2cc1OCCCN1CCOCC1 [Foretinib] (partner 0.25 µM)?
**A.** relative viability ([1]; first compound 0.04 µM): 1.06; relative viability ([1]; first compound 0.1265 µM): 0.909; relative viability ([1]; first compound 0.4 µM): 1.01; relative viability ([1]; first compound 1.265 µM): 0.881; relative viability ([1]; first compound 4 µM): 0.948; relative viability ([2]; first compound 0.04 µM): 0.967; relative viability ([2]; first compound 0.1265 µM): 0.765; relative viability ([2]; first compound 0.4 µM): 0.926; relative viability ([2]; first compound 1.265 µM): 0.869; relative viability ([2]; first compound 4 µM): 0.813; relative viability ([3]; first compound 0.04 µM): 0.111; relative viability ([3]; first compound 0.1265 µM): 0.109; relative viability ([3]; first compound 0.4 µM): 0.0892; relative viability ([3]; first compound 1.265 µM): 0.0958; relative viability ([3]; first compound 4 µM): 0.118; relative viability ([4]; first compound 0.04 µM): 1.16; relative viability ([4]; first compound 0.1265 µM): 1.16; relative viability ([4]; first compound 0.4 µM): 1.05; relative viability ([4]; first compound 1.265 µM): 0.919; relative viability ([4]; first compound 4 µM): 1.06; relative viability ([5]; first compound 0.04 µM): 1.1; relative viability ([5]; first compound 0.1265 µM): 1.07; relative viability ([5]; first compound 0.4 µM): 1.15; relative viability ([5]; first compound 1.265 µM): 1.11; relative viability ([5]; first compound 4 µM): 1.11; relative viability ([6]; first compound 0.04 µM): 0.816; relative viability ([6]; first compound 0.1265 µM): 0.861; relative viability ([6]; first compound 0.4 µM): 0.794; relative viability ([6]; first compound 1.265 µM): 0.854; relative viability ([6]; first compound 4 µM): 0.783; relative viability ([7]; first compound 0.04 µM): 0.323; relative viability ([7]; first compound 0.4 µM): 0.335; relative viability ([7]; first compound 1.265 µM): 0.34; relative viability ([7]; first compound 4 µM): 0.363; relative viability ([8]; first compound 0.04 µM): 1.12; relative viability ([8]; first compound 0.1265 µM): 0.94; relative viability ([8]; first compound 0.4 µM): 0.916; relative viability ([8]; first compound 1.265 µM): 0.94; relative viability ([8]; first compound 4 µM): 1.02
